We go through two molecules from patent US12138256B2, “Treatment of cardiopulmonary disorders” (Bayer Aktiengesellschaft, priority 2021, dated 2024).

Data set [1] deals with thromboxane analog U46619 induced PAH in minipigs. Kind of data set: PAH minipig model: comparison with and on top of standard of care (bosentan, sildenafil, riociguat). The data set is classed as in vivo, Göttingen minipig. To be noted: for BP decrease % / PAP decrease %: % change per animal. An excerpt: Efficacy of inhaled comparative example 11 was compared with systemically applied bosentan, sildenafil and riociguat (see FIG. 53a) in the PAH minipig model. […] Therefore inhaled application of comparative example 11 offers clear benefits as systemic effects are avoided, compared to standard of care.

For another data set, the system named is Caco-2 cells. Kind of data set: Caco-2 permeability test (C-5.1). The data set is classed as in vitro ADME, human. The conditions noted are these: 2 μM. On the procedure:
The in vitro permeation of a test compound across a Caco-2 cell monolayer is a well-established assay system to predict the permeability from the gastro-intestinal tract (1). The permeability of the compounds of the present invention in such Caco-2 cells was determined as described below:
Human caco-2 cells were seeded on 24-well insert plates and were allowed to grow for 14-16 days. For permeability studies, the test compounds were dissolved in DMSO and diluted to the final test concentration of 2 μM with transport buffer [Hanks' Buffered Salt Solution, Gibco/Invitrogen, further supplemented with glucose and HEPES]. For determination of the apical to basolateral permeability (PappA-B), the test compound solution was added to the apical side of the cell monolayer and transport buffer to the basolateral side of the monolayer; for determination of the basolateral to apical permeability (PappB-A), the test compound solution was added to the basolateral side of the cell monolayer and transport buffer to the apical side of the monolayer. Samples were taken from the donor compartment at the beginning of the experiment to confirm mass balance. After an incubation of 2 h at 37° C., samples were taken from both compartments. Samples were analyzed by LC-MS/MS, and the apparent permeability coefficients were calculated. Lucifer Yellow permeability was assayed for each cell monolayer to ensure cell monolayer integrity, and the permeability of Atenolol (low permeability marker) and Sulfasalazine (marker for active excretion) was determined for each batch as quality control.
(In general: Passage across Caco-2 layers is used to estimate intestinal permeability.)

Data set [2] can be described thus: Thermal stability of the solid (90° C., 7 days, HPLC peak areas). The data set is classed as physicochemical. On the procedure:
0.3 mg of the test compound, e.g. comparative example 11 were solved in 0.1 ml dimethylsulfoxide and 0.4 ml acetonitrile. Then 1.0 ml water was added. For complete dissolution the HPLC vial was shaken and sonicated. This solution was immediately analyzed by HPLC (reference at t0). 0.3 mg of the test compound was weighed into another HPLC vial. The vial was capped and stored for 7 days in a heating block at 90° C.
After this time the vial was decapped and 0.1 ml dimethylsulfoxide and 0.4 ml acetonitrile were added to the stressed compound. Then 1.0 ml water was added. For complete dissolution the HPLC vial was shaken and sonicated. The sample was analyzed by HPLC (sample after 1 week). The peak areas in percentage are used for quantification.

The nature of data set [3]: Phase I, healthy male subjects, 7 days inhalation: plasma concentrations over time (C-4.1). To be noted: all doses administered. The data set is classed as in vivo, human. The protocol: Healthy White male subjects, aged 18 to 45 years and with a body mass index (BMI) above/equal 18.5 and below/equal 29.9 kg/m2 were treated in a clinical pharmacological phase I study on seven days with inhaled once daily doses of 480 μg or 1000 μg or 2000 μg (2 capsules of 1000 μg) (nominal dose) of dry powder formulations of example 2 or Placebo. The subjects inhaled the drug powder from capsules (see under D-1, e.g. tables 22 and 23) inserted into a handheld inhalation device by one deep inhalative breath. The dry powder formulation of the drug is dispersed into the airstream and fine particles are transported into the deep parts of the lung where it is intended to cause a vasodilation of the blood vessels in PH patients for a substantial reduction of increased blood pressure in the central pulmonary blood vessels in PAH patients or other subtypes of PH. This effect cannot be shown in subjects with healthy lungs. In addition inhaled drug causes a dilation of the bronchial airways and thus also improves disease states of lung diseases in PH patients with pathological bronchoconstriction. This effect was measured via bodyplethysmography as reduction of Specific Airway Resistance in healthy subjects. […]

The mark [4] stands for this setting: 30 μg/kg inhaled on top of Bosentan 1 mg/kg.
[5] abbreviates: 30 μg/kg inhaled on top of Riociguat 3 μg/kg/h.
[6] abbreviates: 30 μg/kg inhaled on top of Sildenafil 300 μg/kg/h.
Where [7] appears, read: 30 μg/kg nominal dose inhaled, alone.

“And” between values parts separate entries of the source, which are not always exact repeats. Identical values can stand only once.

In the case of `O=C(O)c1ccc(CCN(CCc2ccccc2OCc2ccc(-c3ccc(C(F)(F)F)cc3)cc2Cl)[C@H]2CCCc3nc(C(=O)O)ccc32)cc1` [comparative example 11, (5S)-5-{[2-(4-carboxyphenyl)ethyl][2-(2-{[3-chloro-4′-(trifluoromethyl)[biphenyl]-4-yl]methoxy}phenyl)ethyl]amino}-5,6,7,8-tetrahydroquinoline-2-carboxylic acid], the BP decrease % in data set [1] (setting [4]) was −12.8% and 3.6%; in data set [1] (setting [5]), 3.1% and −1.1% and 11.5%; in data set [1] (setting [6]) it was −6.9% and −6.4% and 1.2%; in data set [1] (setting [7]) it was −6.8% and 1.6% and 3.5%; in data set [1] (100 μg/kg nominal dose inhaled) it was −4.5% and −9.9% and −3.1%. In addition, the PAP decrease % was −29.7% and −27.1% in data set [1] (setting [4]); −29.7% and −24.2% and −26.3% in data set [1] (setting [5]); −33.6% and −36.9% and −42.8% in data set [1] (setting [6]); −19.9% and −22.8% and −21.7% in data set [1] (setting [7]); −33.1% and −45.1% and −38.2% in data set [1] (100 μg/kg nominal dose inhaled). In addition, the “efficacy regarding PAP on top of bosentan, sildenafil or riociguat” value in data set [1] (comparative example 11 30 μg/kg inhaled) is listed as “maintained its efficacy regarding PAP”. Also, the efflux ratio result in the data set with Caco-2 cells is reported as “does not show an efflux ratio”. In addition, the thermal stability entry in data set [2] is listed as “stable”.

Regarding `O=C(O)c1ccc(CCN(CCc2ccccc2OCc2ccc(-c3ccc(C(F)(F)F)cc3)cc2Cl)[C@H]2CCCc3nc(C(=O)O)ccc32)cc1` [example 2, (5S)-{[2-(4-Carboxyphenyl)ethyl][2-(2-{[3-chloro-4′-(trifluoromethyl)biphenyl-4-yl]methoxy}phenyl)-ethyl]amino}-5,6,7,8-tetrahydroquinoline-2-carboxylic acid], the “persistence of measurable plasma concentration after first inhalation” value in data set [3] was determined as 48 h.
